Test results reported in patent US7598255B2 (Janssen Pharmaceutica NV, priority 2005, dated 2009).
Where a name gives a salt, the structure may show the parent alone.

Assays:
[1] = target: T1, human recombinant 5-HT2C receptor (Homo sapiens, UniProt P28335); test: Affinity for 5HT2 receptor binding sites, h5-HT2C, [3H]mesulergine; settings: CHO h5-HT2C membranes
T1 sequence (P28335 33-458): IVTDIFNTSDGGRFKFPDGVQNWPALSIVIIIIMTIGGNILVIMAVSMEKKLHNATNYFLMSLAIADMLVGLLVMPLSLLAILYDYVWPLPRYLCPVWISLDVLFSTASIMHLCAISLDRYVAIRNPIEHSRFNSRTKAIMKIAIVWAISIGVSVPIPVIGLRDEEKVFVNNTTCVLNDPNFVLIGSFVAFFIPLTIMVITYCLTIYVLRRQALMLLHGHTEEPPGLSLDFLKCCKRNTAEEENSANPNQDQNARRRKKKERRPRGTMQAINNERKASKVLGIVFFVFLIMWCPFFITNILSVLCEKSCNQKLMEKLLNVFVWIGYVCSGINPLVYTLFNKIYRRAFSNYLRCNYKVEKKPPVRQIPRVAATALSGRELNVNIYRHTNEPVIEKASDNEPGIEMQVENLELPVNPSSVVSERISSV
Procedure: (§1) Sigmoidal inhibition curves were generated and fitted by nonlinear regression analysis (GraphPad Prism).
(§2) Receptor binding was performed using the human recombinant 5-HT2A (GB: X57830), 5-HT2B (GB: Z36748) and 5-HT2C (GB: M81778) receptors. The affinity of the compounds for the 3 different human 5-HT2 receptor subtypes was evaluated by competitive radioligand binding assays using [^3H]ketanserin (h5-HT2A) or [^3H]mesulergine (h5-HT2B and h5-HT2C). The assays were performed on membranes prepared from NIH3T3 stably transfected with h5-HT2A or CHO stably transfected with h5-HT2B and h5-HT2C.

[2] = target: 5-HT2B receptor (Homo sapiens, UniProt P41595); test: Affinity for 5HT2 receptor binding sites, h5-HT2B, [3H]mesulergine; settings: CHO h5-HT2B membranes
Procedure: as §1, §2

[3] = target: rat 5-HT7a receptor (Rattus norvegicus, UniProt P32305); test: Affinity for 5-HT7 receptor binding sites, radioligand binding with [3H]5-CT; settings: membranes of HEK-293 cells with rat 5-HT7a, 1 nM [3H]5-CT
Procedure: The affinity of the compounds described in this invention for the 5-HT7 receptor binding site was evaluated by single competition radioligand binding assay. The assay was performed on membranes prepared from HEK-293 cells that had been subjected to stable transfection with the rat 5-HT7a receptor (GB: NM022938). Cells were scraped from the culture plates, suspended in Tris-HCl 50 mM pH 7.5 and collected through centrifugation (1000 rpm for 5 min). The cell pellets were homogenized (Polytron, 15 s, setting 5) in 50 mM Tris-HCl (pH 7.5), 5 mM EDTA. Following centrifugation (15,000 rpm for 25 min), membranes (135 μg protein/mL) were resuspended in the same buffer and incubated for 60 min at RT with 1 nM [^3H]5-CT in the presence of increasing concentration of test compounds. Nonspecific binding was defined in the presence of 10 μM 5-HT. Incubation was stopped by rapid filtration using the cell harvester (Packard). Radioactivity was counted in a TopCount-NXT (Packard). Experiments were conducted in triplicate.

[4] = target: 5-HT2A receptor (Homo sapiens, UniProt P28223); test: Affinity for 5-HT2A receptor binding sites, radioligand binding with [3H]ketanserin; settings: read-out: Ki 5-HT2A, rat cortex membranes (assay 2) or NIH3T3 h5-HT2A membranes (assay 3), table does not say which
Procedure: as §1
The affinity of the compounds for the rat 5-HT2A receptor was evaluated by competitive radioligand binding assay using [^3H]ketanserine as the radioligand. […] Brain tissue (rat cortex) was homogenized in 20 volumes per wet weight tissue of Tris-HCl buffer (50 mM, pH 7.4). The total membrane fraction was collected by centrifugation and washed by subsequent centrifugation runs (25 min at 25,000 g at 4° C.). Membranes were re-suspended in Tris-HCl buffer (50 mM, pH 7.4) containing 1 nM [^3H]ketanserin. Non-specific binding was estimated in the presence of 10 μM risperidone. The incubation was terminated by rapid filtration over Whatman GF/B filters pre-soaked in 0.1% polyethylenimine, and one washing step with 1 mL ice-cold Tris-HCl buffer, pH 7.4.

Sequence of rat 5-HT7a receptor (P32305 whole entry): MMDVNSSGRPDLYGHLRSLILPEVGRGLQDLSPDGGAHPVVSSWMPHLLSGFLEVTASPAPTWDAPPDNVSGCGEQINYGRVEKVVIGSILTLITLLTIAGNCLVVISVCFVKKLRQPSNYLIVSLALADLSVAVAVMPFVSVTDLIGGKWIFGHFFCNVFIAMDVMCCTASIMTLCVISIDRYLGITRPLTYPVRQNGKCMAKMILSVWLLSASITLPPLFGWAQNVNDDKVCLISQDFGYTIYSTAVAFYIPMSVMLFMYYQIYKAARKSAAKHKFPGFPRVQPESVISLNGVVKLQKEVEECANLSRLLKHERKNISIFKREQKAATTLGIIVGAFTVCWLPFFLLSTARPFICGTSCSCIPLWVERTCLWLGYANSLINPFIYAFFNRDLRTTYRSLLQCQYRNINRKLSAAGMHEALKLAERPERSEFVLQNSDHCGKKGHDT
Sequence of 5-HT2B receptor (P41595 whole entry): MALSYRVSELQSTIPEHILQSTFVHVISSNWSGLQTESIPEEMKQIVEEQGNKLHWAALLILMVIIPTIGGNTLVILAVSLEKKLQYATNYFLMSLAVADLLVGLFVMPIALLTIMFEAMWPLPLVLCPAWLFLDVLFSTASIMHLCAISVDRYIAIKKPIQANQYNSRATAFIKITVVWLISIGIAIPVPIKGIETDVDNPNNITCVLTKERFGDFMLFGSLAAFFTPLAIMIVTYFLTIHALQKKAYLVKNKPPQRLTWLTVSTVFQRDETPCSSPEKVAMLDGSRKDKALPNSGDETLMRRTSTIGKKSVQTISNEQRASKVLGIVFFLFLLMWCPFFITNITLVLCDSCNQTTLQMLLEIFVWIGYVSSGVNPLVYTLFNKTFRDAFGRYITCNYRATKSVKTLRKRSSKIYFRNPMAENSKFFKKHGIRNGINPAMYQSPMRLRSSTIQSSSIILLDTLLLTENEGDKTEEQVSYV

| Compound | Ki [1] | Ki [2] | Ki [3] | Ki [4] |
| --- | --- | --- | --- | --- |
| Cc1ccc(-c2cc(CN3CCN(C)CC3)nc(Cc3ccccc3)n2)cc1 [Example 113, 2-Benzyl-4-(4-methyl-piperazin-1-ylmethyl)-6-p-tolyl-pyrimidine] | > 10000 nM | > 10000 nM | > 10000 nM | 650 nM |
| CC(C)c1nc2c(c(-c3ccccc3)n1)CCN(Cc1ccccc1)C2 [Example 75, 7-Benzyl-2-isopropyl-4-phenyl-5,6,7,8-tetrahydro-pyrido[3,4-d]pyrimidine] | > 10000 nM | 3000 nM | 5000 nM | 70 nM |
| Cc1nc2c(c(-c3ccccc3)n1)CCNCC2 [Example 52, 2-Methyl-4-phenyl-6,7,8,9-tetrahydro-5H-pyrimido[4,5-d]azepine] | 9000 nM | 1150 nM | > 10000 nM | 725 nM |
| Cc1ccc(-c2cc(CCN)nc(Cc3ccccc3)n2)cc1 [Example 115, 2-(2-Benzyl-6-p-tolyl-pyrimidin-4-yl)-ethylamine] | > 10000 nM | 5000 nM | 5000 nM | 1000 nM |
| c1ccc(Cc2nc3c(c(-c4ccccc4)n2)CNCC3)cc1 [Example 11, 2-Benzyl-4-phenyl-5,6,7,8-tetrahydro-pyrido[4,3-d]pyrimidine] | 2000 nM | > 10000 nM | > 10000 nM | 100 nM |
| CNC1CCc2c(nc(C(C)C)nc2-c2ccc(F)cc2)C1 (centres unmarked) [Example 108, [4-(4-Fluoro-phenyl)-2-isopropyl-5,6,7,8-tetrahydro-quinazolin-7-yl]-methyl-amine hydrochloride] | 1000 nM | 42 nM | > 10000 nM | 18 nM |
| Cc1ccc(-c2nc(C3CCC3)nc3c2CNCC3)cc1 [Example 6, 2-Cyclobutyl-4-p-tolyl-5,6,7,8-tetrahydro-pyrido[4,3-d]pyrimidine] | 300 nM | 200 nM | > 10000 nM | 50 nM |
| FC(F)(F)c1ccc(-c2nc(Cc3ccccc3)nc3c2CNCC3)cc1 [Example 9, 2-Benzyl-4-(4-trifluoromethyl-phenyl)-5,6,7,8-tetrahydro-pyrido[4,3-d]pyrimidine] | 7500 nM | > 10000 nM | 5000 nM | 1350 nM |
| CC(C)c1nc2c(c(-c3ccccc3)n1)CNCC2 [Example 31, 2-Isopropyl-4-phenyl-5,6,7,8-tetrahydro-pyrido[4,3-d]pyrimidine] | > 10000 nM | 2000 nM | > 10000 nM | 70 nM |
| CC(C)c1nc(-c2ccc(Cl)cc2)c2c(n1)C(C)CN(Cc1ccccc1)C2 (centres unmarked) [Example 97, 6-Benzyl-4-(4-chloro-phenyl)-2-isopropyl-8-methyl-5,6,7,8-tetrahydro-pyrido[4,3-d]pyrimidine] | > 10000 nM | > 10000 nM | > 10000 nM | > 10000 nM |
| CC(C)c1nc(-c2ccccc2)c2c(n1)C(C)CNC2 (centres unmarked) [Example 103, 2-Isopropyl-8-methyl-4-phenyl-5,6,7,8-tetrahydro-pyrido[4,3-d]pyrimidine] | 1000 nM | 1000 nM | > 10000 nM | 40 nM |
| CCC(C)c1nc2c(c(-c3ccc(OC(F)(F)F)cc3)n1)CNCC2 (centres unmarked) [Example 45, 2-sec-Butyl-4-(4-trifluoromethoxy-phenyl)-5,6,7,8-tetrahydro-pyrido[4,3-d]pyrimidine] | > 10000 nM | > 10000 nM | > 10000 nM | > 10000 nM |
| Cc1ccc(-c2nc(C(C)C)nc3c2CNCC3)cc1 [Example 28, 2-Isopropyl-4-p-tolyl-5,6,7,8-tetrahydro-pyrido[4,3-d]pyrimidine] | 3000 nM | 400 nM | > 10000 nM | 100 nM |
| COc1ccc(-c2nc(C3CCCC3)nc3c2CNCC3)cc1 [Example 19, 2-Cyclopentyl-4-(4-methoxy-phenyl)-5,6,7,8-tetrahydro-pyrido[4,3-d]pyrimidine] | 200 nM | 140 nM | > 10000 nM | 100 nM |
| CC(C)c1nc2c(c(-c3ccsc3)n1)CCN(Cc1ccccc1)C2 [Example 87, 7-Benzyl-2-isopropyl-4-thiophen-3-yl-5,6,7,8-tetrahydro-pyrido[3,4-d]pyrimidine hydrochloride] | > 10000 nM | 2000 nM | > 10000 nM | 600 nM |
| CC(C)Cc1nc2c(c(-c3ccc(C#N)cc3)n1)CNCC2 [Example 40, 4-(2-Isobutyl-5,6,7,8-tetrahydro-pyrido[4,3-d]pyrimidin-4-yl)-benzonitrile] | > 10000 nM | > 10000 nM | > 10000 nM | 500 nM |
| CC(C)c1nc2c(c(-c3ccc(Cl)c(Cl)c3)n1)CNCC2 [Example 23, 4-(3,4-Dichloro-phenyl)-2-isopropyl-5,6,7,8-tetrahydro-pyrido[4,3-d]pyrimidine hydrochloride] | > 10000 nM | > 10000 nM | > 10000 nM | 500 nM |
| N#Cc1ccc(-c2nc(C3CCCC3)nc3c2CNCC3)cc1 [Example 20, 4-(2-Cyclopentyl-5,6,7,8-tetrahydro-pyrido[4,3-d]pyrimidin-4-yl)-benzonitrile] | > 10000 nM | 1200 nM | > 10000 nM | 700 nM |
| Cc1nc2c(c(-c3cccc(Cl)c3)n1)CCNCC2 [Example 53, 4-(3-Chloro-phenyl)-2-methyl-6,7,8,9-tetrahydro-5H-pyrimido[4,5-d]azepine] | > 10000 nM | > 10000 nM | > 10000 nM | 1000 nM |
| CC(C)c1nc(-c2ccc(F)cc2)c2c(n1)C(C)CN(Cc1ccccc1)C2 (centres unmarked) [Example 92, 6-Benzyl-4-(4-fluoro-phenyl)-2-isopropyl-8-methyl-5,6,7,8-tetrahydro-pyrido[4,3-d]pyrimidine] | > 10000 nM | > 10000 nM | > 10000 nM | 300 nM |
| CC(C)Cc1nc2c(c(-c3ccncc3)n1)CNCC2 [Example 36, 2-Isobutyl-4-pyridin-4-yl-5,6,7,8-tetrahydro-pyrido[4,3-d]pyrimidine] | > 10000 nM | > 10000 nM | > 10000 nM | > 10000 nM |
| Fc1ccc(-c2nc(Cc3ccccc3)nc3c2CNCC3)cc1F [Example 10, 2-Benzyl-4-(3,4-difluoro-phenyl)-5,6,7,8-tetrahydro-pyrido[4,3-d]pyrimidine] | 5000 nM | > 10000 nM | > 10000 nM | 200 nM |
| CNCc1cc(-c2ccc(F)cc2)nc(C(C)C)n1 [Example 114, [6-(4-Fluoro-phenyl)-2-isopropyl-pyrimidin-4-ylmethyl]-methyl-amine] | 1000 nM | 300 nM | > 10000 nM | 35 nM |
| Fc1cccc(-c2nc(Cc3ccccc3)nc3c2CNCC3)c1 [Example 12, 2-Benzyl-4-(3-fluoro-phenyl)-5,6,7,8-tetrahydro-pyrido[4,3-d]pyrimidine] | 5000 nM | > 10000 nM | > 10000 nM | 300 nM |
| Fc1ccc(-c2nc(C3CCC3)nc3c2CNCC3)cc1 [Example 5, 2-Cyclobutyl-4-(4-fluoro-phenyl)-5,6,7,8-tetrahydro-pyrido[4,3-d]pyrimidine hydrochloride] | 250 nM | 350 nM | > 10000 nM | 13 nM |
| CC(C)c1nc(-c2ccc(F)c(Cl)c2)c2c(n1)C(C)CNC2 (centres unmarked) [Example 101, 4-(3-Chloro-4-fluoro-phenyl)-2-isopropyl-8-methyl-5,6,7,8-tetrahydro-pyrido[4,3-d]pyrimidine hydrochloride] | > 10000 nM | > 10000 nM | > 10000 nM | 400 nM |
| CC(C)c1nc(-c2ccc(-c3ccc(Cl)cc3)cc2)c2c(n1)C(C)CN(Cc1ccccc1)C2 (centres unmarked) [Example 99, 6-Benzyl-4-(4′-chloro-biphenyl-4-yl)-2-isopropyl-8-methyl-5,6,7,8-tetrahydro-pyrido[4,3-d]pyrimidine] | > 10000 nM | > 10000 nM | > 10000 nM | > 10000 nM |
| CC(C)(C)c1nc2c(c(-c3ccc(F)cc3)n1)CNCC2 [Example 1, 2-tert-Butyl-4-(4-fluoro-phenyl)-5,6,7,8-tetrahydro-pyrido[4,3-d]pyrimidine] | 90 nM | 70 nM | 540 nM | 4 nM |
| CN(C)CCc1cc(-c2ccc(F)cc2)nc(C(C)(C)C)n1 [Example 167, {2-[2-tert-Butyl-6-(4-fluoro-phenyl)-pyrimidin-4-yl]-ethyl}-dimethyl-amine] | 200 nM | 14 nM | 450 nM | 7 nM |
